From patent publication US4288590A, “7 -[Dα-(4-Hydroxy-1,5-naphthyridine-3-carboxamido)-α-arylacetam ido]-3-(N,N-dimethyl-aminomethylpyridinium) methyl-3-cephem-4-carboxylates” (Bristol-Myers Company, priority 1980, dated 1981)
Where a name gives a salt, the structure may show the parent alone.

Experiments:
[1] = Mouse blood levels after intramuscular administration (Table 3); assay type: in vivo; details: im, read-out: Blood level; for concentration at 0.25 h: 15'; for concentration at 0.5 h: 30'; for concentration at 1 h: 60'; for concentration at 2 h: 120'
Experimental: (§1) […] The blood samples were collected from the orbital sinuses into heparinized capillary tubes at 15, 30, 60 and 120 minutes after administration. The antibiotic concentration was determined by the paper disc-agar diffusion method using E. coli NIHJ or S. lutea PCI 1001 as the assay organism.

K. pneumoniae A9977 = experiment: In vivo efficacy, experimental infection in mice; details: Klebsiella pneumoniae, A9977, in Mus musculus, im, 120 h, read-out: PD50 (median protective dose)
Experimental: (§3) The mice were treated with test compound by im route immediately after the bacterial challenge.

[2] = Additional mouse blood levels after intramuscular administration (Table 4); assay type: in vivo; details: mice, im, read-out: Blood level
Experimental: as §1

P. aeruginosa A21509 = experiment: In vivo efficacy, experimental infection in mice; details: Pseudomonas aeruginosa, A21509, in Mus musculus, im, 120 h, read-out: PD50 (median protective dose)
Experimental: as §3

P. aeruginosa A9843 = experiment: In vivo efficacy, experimental infection in mice; details: Pseudomonas aeruginosa, A9843, in Mus musculus, im, 120 h, read-out: PD50 (median protective dose)
Experimental: as §3

P. mirabilis A9900 = experiment: In vivo efficacy, experimental infection in mice; details: Proteus mirabilis, A9900, in Mus musculus, im, 120 h, read-out: PD50 (median protective dose)
Experimental: as §3

E. coli Juhl A15119 = experiment: In vivo efficacy, experimental infection in mice; details: Escherichia coli, JUHLA15119, in Mus musculus, im, 120 h, read-out: PD50 (median protective dose)
Experimental: as §3

S. pyogenes A20201 = experiment: In vivo efficacy, experimental infection in mice; details: Streptococcus pyogenes, A20201, in Mus musculus, im, 120 h, read-out: PD50 (median protective dose)
Experimental: as §3

S. marcescens = experiment: In vitro activity, MIC of strain group (Table 2); assay type: cell-based; details: Serratia marcescens; Gn-II S. marcescens, 10 strains; read-out: Geometric mean of MIC
Experimental: (§2) Minimum inhibitory concentrations (MIC) of BB-S 651, BB-S 669 and BB-S 676 were determined by serial two-fold agar dilution method using Steers' apparatus on Mueller-Hinton agar plate against 15 test organisms for primary screening as shown in Table 1.

S. aureus (Gp-Ia) = experiment: In vitro activity, MIC of strain group (Table 2); assay type: cell-based; details: Staphylococcus aureus, 12 strains, read-out: Geometric mean of MIC
Experimental: as §2

S. aureus (Gp-Ib) = experiment: In vitro activity, MIC of strain group (Table 2); assay type: cell-based; details: Staphylococcus aureus, 16 strains, read-out: Geometric mean of MIC
Experimental: as §2

P. cepacia = experiment: In vitro activity, MIC of strain group (Table 2); assay type: cell-based; details: Burkholderia cepacia; Gn-III P. cepacia, 4 strains; read-out: Geometric mean of MIC
Experimental: as §2

P. stuartii = experiment: In vitro activity, MIC of strain group (Table 2); assay type: cell-based; details: Providencia stuartii; Gn-II P. stuartii, 5 strains; read-out: Geometric mean of MIC
Experimental: as §2

E. coli (Gn-Ib) = experiment: In vitro activity, MIC of strain group (Table 2); assay type: cell-based; details: Escherichia coli, 13 strains, read-out: Geometric mean of MIC
Experimental: as §2

Neisseria sp. = experiment: In vitro activity, MIC of strain group (Table 2); assay type: cell-based; details: Gn-IV Neisseria sp., 6 strains; read-out: Geometric mean of MIC
Experimental: as §2

E. coli (Gn-Ia) = experiment: In vitro activity, MIC of strain group (Table 2); assay type: cell-based; details: Escherichia coli, 7 strains, read-out: Geometric mean of MIC
Experimental: as §2

S. pyogenes = experiment: In vitro activity, MIC of strain group (Table 2); assay type: cell-based; details: Streptococcus pyogenes; Gp-II S. pyogenes, 10 strains; read-out: Geometric mean of MIC
Experimental: as §2

P. maltophilia = experiment: In vitro activity, MIC of strain group (Table 2); assay type: cell-based; details: Stenotrophomonas maltophilia; Gn-III P. maltophilia, 13 strains; read-out: Geometric mean of MIC
Experimental: as §2

K. pneumoniae (Gn-Ib) = experiment: In vitro activity, MIC of strain group (Table 2); assay type: cell-based; details: Klebsiella pneumoniae, 5 strains, read-out: Geometric mean of MIC
Experimental: as §2

P. putida = experiment: In vitro activity, MIC of strain group (Table 2); assay type: cell-based; details: Pseudomonas putida; Gn-III P. putida, 5 strains; read-out: Geometric mean of MIC
Experimental: as §2

P. aeruginosa = experiment: In vitro activity, MIC of strain group (Table 2); assay type: cell-based; details: Pseudomonas aeruginosa; Gn-III P. aeruginosa, 32 strains; read-out: Geometric mean of MIC
Experimental: as §2

P. mirabilis (Gn-Ib) = experiment: In vitro activity, MIC of strain group (Table 2); assay type: cell-based; details: Proteus mirabilis, 2 strains, read-out: Geometric mean of MIC
Experimental: as §2

K. pneumoniae (Gn-Ia) = experiment: In vitro activity, MIC of strain group (Table 2); assay type: cell-based; details: Klebsiella pneumoniae, 10 strains, read-out: Geometric mean of MIC
Experimental: as §2

P. mirabilis (Gn-Ia) = experiment: In vitro activity, MIC of strain group (Table 2); assay type: cell-based; details: Proteus mirabilis, 6 strains, read-out: Geometric mean of MIC
Experimental: as §2

H. influenzae = experiment: In vitro activity, MIC of strain group (Table 2); assay type: cell-based; details: Haemophilus influenzae; Gn-IV H. influenzae, 4 strains; read-out: Geometric mean of MIC
Experimental: as §2

S. pneumoniae = experiment: In vitro activity, MIC of strain group (Table 2); assay type: cell-based; details: Streptococcus pneumoniae; Gp-II S. pneumoniae, 9 strains; read-out: Geometric mean of MIC
Experimental: as §2

CN(C)Cc1ccc[n+](CC2=C(C(=O)[O-])N3C(=O)C(NC(=O)[C@H](NC(=O)c4cnc5cccnc5c4O)c4ccc(O)cc4)C3SC2)c1 (stereo partly drawn) [BB-S 651, 7-[D-α-(4-Hydroxy-1,5-naphthyridine-3-carboxamido)-α-(4-hydroxyphenyl)acetamido]-3-(3-N,N-dimethylaminomethylpyridinium)methyl-3-cephem-4-carboxylate Hydrochloride]
concentration at 0.25 h ([1]; 10 mg/kg): 5000 ng/mL
concentration at 0.5 h ([1]; 10 mg/kg): 3000 ng/mL
concentration at 1 h ([1]; 10 mg/kg): < 400 ng/mL
concentration at 2 h ([1]; 10 mg/kg): < 400 ng/mL
concentration at 0.25 h ([1]; 20 mg/kg): 11000 ng/mL
concentration at 0.5 h ([1]; 20 mg/kg): 9000 ng/mL
concentration at 1 h ([1]; 20 mg/kg): 5000 ng/mL
concentration at 2 h ([1]; 20 mg/kg): < 400 ng/mL
concentration at 0.25 h ([1]; 40 mg/kg): 25000 ng/mL
concentration at 0.5 h ([1]; 40 mg/kg): 18000 ng/mL
concentration at 1 h ([1]; 40 mg/kg): 11000 ng/mL
concentration at 2 h ([1]; 40 mg/kg): 3000 ng/mL
ED50 (K. pneumoniae A9977): 7.4 mg/kg
concentration at 0.5 h ([2]; 10 mg/kg, dose 10, 1/2 hour): 3300 ng/mL
concentration at 0.25 h ([2]; 10 mg/kg, dose 10, 1/4 hour): 4300 ng/mL
concentration at 1 h ([2]; 10 mg/kg, dose 10, 1 hour): 2500 ng/mL
concentration at 2 h ([2]; 10 mg/kg, dose 10, 2 hour): < 800 ng/mL
concentration at 0.5 h ([2]; 20 mg/kg, dose 20, 1/2 hour): 7400 ng/mL
concentration at 0.25 h ([2]; 20 mg/kg, dose 20, 1/4 hour): 10000 ng/mL
concentration at 1 h ([2]; 20 mg/kg, dose 20, 1 hour): 5800 ng/mL
concentration at 2 h ([2]; 20 mg/kg, dose 20, 2 hour): < 800 ng/mL
concentration at 0.5 h ([2]; 40 mg/kg, 1/2 hour): 14000 ng/mL
concentration at 0.25 h ([2]; 40 mg/kg, 1/4 hour): 20000 ng/mL
concentration at 1 h ([2]; 40 mg/kg, 1 hour): 10000 ng/mL
concentration at 2 h ([2]; 40 mg/kg, 2 hour): 3000 ng/mL
ED50 (P. aeruginosa A21509): 3.2 mg/kg
ED50 (P. aeruginosa A9843): 1.9 mg/kg
ED50 (P. mirabilis A9900): > 25 mg/kg
ED50 (E. coli Juhl A15119): 1.9 mg/kg
ED50 (S. pyogenes A20201): 1.1 mg/kg
MIC (S. marcescens): > 100 µg/mL
MIC (S. aureus (Gp-Ia)): 3.7 µg/mL
MIC (S. aureus (Gp-Ib)): 42 µg/mL
MIC (P. cepacia): 59 µg/mL
MIC (P. stuartii): 1.6 µg/mL
MIC (E. coli (Gn-Ib)): 29 µg/mL
MIC (Neisseria sp.): 1.6 µg/mL
MIC (E. coli (Gn-Ia)): 2.6 µg/mL
MIC (S. pyogenes): 0.4 µg/mL
MIC (P. maltophilia): 14 µg/mL
MIC (K. pneumoniae (Gn-Ib)): > 100 µg/mL
MIC (P. putida): 22 µg/mL
MIC (P. aeruginosa): 1.7 µg/mL
MIC (P. mirabilis (Gn-Ib)): > 100 µg/mL
MIC (K. pneumoniae (Gn-Ia)): 18 µg/mL
MIC (P. mirabilis (Gn-Ia)): > 100 µg/mL
MIC (H. influenzae): 0.8 µg/mL
MIC (S. pneumoniae): 0.8 µg/mL

CCN1CCN(C(=O)N[C@@H](C(=O)N[C@@H]2C(=O)N3C(C(=O)O)=C(CSc4nnnn4C)CS[C@H]23)c2ccc(O)cc2)C(=O)C1=O [Cefoperazone, reference compound]
concentration at 0.25 h ([1]; 10 mg/kg): 3500 ng/mL
concentration at 0.5 h ([1]; 10 mg/kg): 1800 ng/mL
concentration at 1 h ([1]; 10 mg/kg): < 400 ng/mL
concentration at 2 h ([1]; 10 mg/kg): < 400 ng/mL
concentration at 0.25 h ([1]; 20 mg/kg): 9000 ng/mL
concentration at 0.5 h ([1]; 20 mg/kg): 5500 ng/mL
concentration at 1 h ([1]; 20 mg/kg): 1300 ng/mL
concentration at 2 h ([1]; 20 mg/kg): < 400 ng/mL
concentration at 0.25 h ([1]; 40 mg/kg): 19000 ng/mL
concentration at 0.5 h ([1]; 40 mg/kg): 14000 ng/mL
concentration at 1 h ([1]; 40 mg/kg): 2500 ng/mL
concentration at 2 h ([1]; 40 mg/kg): < 400 ng/mL
ED50 (K. pneumoniae A9977): 0.6 mg/kg
concentration at 0.5 h ([2]; 10 mg/kg, dose 10, 1/2 hour): 3500 ng/mL
concentration at 0.25 h ([2]; 10 mg/kg, dose 10, 1/4 hour): 5000 ng/mL
concentration at 1 h ([2]; 10 mg/kg, dose 10, 1 hour): 1200 ng/mL
concentration at 2 h ([2]; 10 mg/kg, dose 10, 2 hour): < 800 ng/mL
concentration at 0.5 h ([2]; 20 mg/kg, dose 20, 1/2 hour): 6300 ng/mL
concentration at 0.25 h ([2]; 20 mg/kg, dose 20, 1/4 hour): 10500 ng/mL
concentration at 1 h ([2]; 20 mg/kg, dose 20, 1 hour): 2500 ng/mL
concentration at 2 h ([2]; 20 mg/kg, dose 20, 2 hour): < 800 ng/mL
concentration at 0.5 h ([2]; 40 mg/kg, 1/2 hour): 12000 ng/mL
concentration at 0.25 h ([2]; 40 mg/kg, 1/4 hour): 18000 ng/mL
concentration at 1 h ([2]; 40 mg/kg, 1 hour): 5400 ng/mL
concentration at 2 h ([2]; 40 mg/kg, 2 hour): 1200 ng/mL
ED50 (P. aeruginosa A21509): 30 mg/kg
ED50 (P. aeruginosa A9843): 20 mg/kg
ED50 (P. mirabilis A9900): 6.3 mg/kg
ED50 (E. coli Juhl A15119): 1.1 mg/kg
ED50 (S. pyogenes A20201): 2.5 mg/kg
MIC (S. marcescens): 47 µg/mL
MIC (S. aureus (Gp-Ia)): 1.6 µg/mL
MIC (S. aureus (Gp-Ib)): 17 µg/mL
MIC (P. cepacia): > 100 µg/mL
MIC (P. stuartii): 0.8 µg/mL
MIC (E. coli (Gn-Ib)): 3.7 µg/mL
MIC (Neisseria sp.): 0.8 µg/mL
MIC (E. coli (Gn-Ia)): 0.2 µg/mL
MIC (S. pyogenes): 0.2 µg/mL
MIC (P. maltophilia): 47 µg/mL
MIC (K. pneumoniae (Gn-Ib)): 100 µg/mL
MIC (P. putida): > 100 µg/mL
MIC (P. aeruginosa): 11 µg/mL
MIC (P. mirabilis (Gn-Ib)): 12.5 µg/mL
MIC (K. pneumoniae (Gn-Ia)): 0.9 µg/mL
MIC (P. mirabilis (Gn-Ia)): 0.8 µg/mL
MIC (H. influenzae): 0.8 µg/mL
MIC (S. pneumoniae): 0.8 µg/mL
